Experimental data: patent US20230014962A1, “Quinoline compound and use thereof” (SKYRUN PHARMA CO., LTD., priority 2019, published 2023)

How the values were obtained:
[1] = molecular target: T1, FGFR4 (Homo sapiens, UniProt P22455); assay: Determination of FGFR4 inhibitory activity by fluorescence resonance energy transfer (FRET) method; format: biochemical; settings: FGFR4 from purchased kit, read-out: In vitro FGFR4 kinase inhibitory activity IC50
T1 construct: purchased
From the text: 1. Determination of FGFR4 Inhibitory Activity of Target Compound
FGFR4 is obtained by direct purchase of a kit.

[2] = tested on: Hep3B cell; assay: Determination of Hep3B cell inhibitory activity (Cell Titer-Glo, 72 h); format: cell-based; settings: Hep3B cells, 72 h incubation, Cell Titer-Glo (CTG) method
From the text: 2. Determination of Hep3B Cell Inhibitory Activity of Target Compound

T1 sequence (P22455 22-802): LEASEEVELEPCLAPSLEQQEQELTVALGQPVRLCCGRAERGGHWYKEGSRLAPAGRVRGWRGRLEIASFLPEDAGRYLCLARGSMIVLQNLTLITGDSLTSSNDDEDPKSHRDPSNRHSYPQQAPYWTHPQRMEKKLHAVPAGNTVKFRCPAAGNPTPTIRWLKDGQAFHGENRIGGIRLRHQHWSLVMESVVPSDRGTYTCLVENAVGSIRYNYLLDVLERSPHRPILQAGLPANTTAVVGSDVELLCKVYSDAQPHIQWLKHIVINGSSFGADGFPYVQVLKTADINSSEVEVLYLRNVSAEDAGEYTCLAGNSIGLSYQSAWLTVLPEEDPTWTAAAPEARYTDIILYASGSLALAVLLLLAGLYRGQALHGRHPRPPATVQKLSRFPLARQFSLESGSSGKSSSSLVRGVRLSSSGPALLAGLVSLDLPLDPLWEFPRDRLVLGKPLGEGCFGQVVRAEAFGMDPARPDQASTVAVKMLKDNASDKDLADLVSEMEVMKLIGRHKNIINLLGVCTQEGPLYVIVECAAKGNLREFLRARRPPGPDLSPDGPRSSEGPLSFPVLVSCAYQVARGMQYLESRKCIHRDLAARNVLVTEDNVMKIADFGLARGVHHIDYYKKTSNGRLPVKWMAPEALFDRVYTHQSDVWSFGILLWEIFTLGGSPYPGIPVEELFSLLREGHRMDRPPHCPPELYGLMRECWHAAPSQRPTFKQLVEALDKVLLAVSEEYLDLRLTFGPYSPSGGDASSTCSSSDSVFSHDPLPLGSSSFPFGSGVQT

4-[2,6-dichloro-4-(cyclopropylaminocarbonyDaminobenzeneamino]-6-[(1-acryloyl-1,2,3,6-tetrahydropyridine)-4-yl]-7-methoxyquinoline [Compound I-27]
IC50 [1]: < 5 nM | IC50 [2]: < 500 nM

4-[3-chloro-4-(cyclopentylaminocarbonyl)aminophenoxy]-6-[(1-acryloyl-1,2,3,6-tetrahydropyridine)-4-yl]1-7-methoxyquinoline [Compound I-9]
IC50 [1]: < 5 nM | IC50 [2]: < 100 nM

4-[3-chloro-4-(cyclopropylaminocarbonyl)aminophenoxy]-6-[(1-acryloyl-1,2,3,6-tetrahydropyridine)-4-yl]-7-ethylquinoline [Compound I-13]
IC50 [1]: < 2 nM | IC50 [2]: < 50 nM

4-[3-chloro-4-(cyclopropylaminocarbonyl)aminophenoxy]-6-[(1-acryloyl-1,2,3,6-tetrahydropyridine)-4-yl]-7-methoxyquinoline [Compound I-1]
IC50 [1]: < 2 nM | IC50 [2]: < 50 nM

4-[3-chloro-4-(cyclopropylaminocarbonyl)aminophenoxy]-6-[(1-acryloyl-piperidine)-4-yl]-7-methoxyquinoline [Compound I-8]
IC50 [1]: < 2 nM | IC50 [2]: < 50 nM

4-[3-chloro-4-(cyclopropylaminocarbonyl)aminophenoxy]-6-[(1-chloroyl-1,2,3,6-tetrahydropyridine)-4-yl]-7-methoxyquinoline [Compound I-4]
IC50 [1]: < 5 nM | IC50 [2]: < 100 nM

4-[3-chloro-4-(cyclopropylaminocarbonyl)aminophenoxy]-6-[(1-diethylphosphorylacetyl-1,2,3,6-tetrahydropyridine)-4-yl]-7-methoxyquinoline [Compound I-2]
IC50 [1]: < 5 nM | IC50 [2]: < 100 nM

4-[3-chloro-4-cyclohexanecarbonylaminophenoxy]-6-[(1-chloroyl-1,2,3,6-tetrahydropyridine)-4-yl]-7-methoxyquinoline [Compound I-7]
IC50 [1]: < 2 nM | IC50 [2]: < 50 nM

4-[3-chloro-4-cyclopropanecarboxylaminophenoxy]-6-[(1-chloroyl-1,2,3,6-tetrahydropyridine)-4 -yl]-7-methoxyquinoline [Compound I-5]
IC50 [1]: < 5 nM | IC50 [2]: < 100 nM

C=CC(=O)Nc1cccc(C)c1Nc1ncc2cc(-c3c(Cl)c(OC)cc(OC)c3Cl)ccc2n1 [Blu9931, reference compound]
IC50 ([2]; Homo sapiens): 174 nM

C=CS(=O)(=O)N1CC=C(c2cc3c(Oc4ccc(NC(=O)NC5CC5)c(Cl)c4)ccnc3cc2OC)CC1 [Compound I-3, 4-[3-chloro-4-(cyclopropylaminocarbonyl)aminophenoxyl]-6-[(1-ethylenesulfonyl-1,2,3,6-tetrahydropyridine)-4-yl]-7-methoxyquinoline]
IC50 [1]: < 5 nM | IC50 ([2]; Homo sapiens): < 100 nM

C=CC(=O)N1CC=C(c2cc3c(Oc4ccc(NC(=O)C5CCCC5)c(Cl)c4)ccnc3cc2OC)CC1 [Compound I-6]
IC50 [1]: < 5 nM | IC50 ([2]; Homo sapiens): < 100 nM

C=CC(=O)N1CC=C(c2cc3c(Oc4ccc(NC(=O)NC5CC5)c(Cl)c4)ccnc3cc2OCc2ccccc2)CC1 [Compound I-10]
IC50 [1]: < 5 nM | IC50 ([2]; Homo sapiens): < 100 nM

C=CC(=O)N1CC=C(c2cc3c(Oc4ccc(NC(=O)NC5CC5)c(Cl)c4)ccnc3cc2OC(C)C)CC1 [Compound I-11, 4-[3-chloro-4-(cyclopropylaminocarbonyl)aminophenoxy]-6-[(1-acryloyl-1,2,3,6-tetrahydropyridine)-4-yl]-7-isopropylquinoline]
IC50 [1]: < 2 nM | IC50 ([2]; Homo sapiens): < 50 nM

C=CC(=O)N1CC=C(c2cc3c(Oc4ccc(NC(=O)NC5CC5)c(Cl)c4)ccnc3cc2OC2CCCC2)CC1 [Compound I-12]
IC50 [1]: < 5 nM | IC50 ([2]; Homo sapiens): < 100 nM

C=CC(=O)N1CC=C(c2cc3c(Oc4ccc(NC(=O)NC5CC5)c(Cl)c4)ccnc3cc2OCCN2CCOCC2)CC1 [Compound I-14]
IC50 [1]: < 5 nM | IC50 ([2]; Homo sapiens): < 100 nM

C=CC(=O)N1CC=C(c2cc3c(Oc4ccc(NC(=O)NC5CCCCC5)c(Cl)c4)ccnc3cc2OC)CC1 [Compound I-15, 4-[3-chloro-4-(cyclohexylaminocarbonyl)aminophenoxy]-6-[(1-acryloyl-1,2,3,6-tetrahydropyridine)-4-yl]-7-methoxyquinoline]
IC50 ([2]; Homo sapiens): < 50 nM

C=CC(=O)N1CC=C(c2cc3c(Oc4ccc(NC(=O)NC(C)(C)C)c(Cl)c4)ccnc3cc2OC)CC1 [Compound I-16, 4-[3-chloro-4-(tert-butylaminocarbonyl)aminophenoxy]-6-[(1-acryloyl-1,2,3,6-tetrahydropyridine)-4-yl]-7-methoxyquinoline]
IC50 [1]: < 5 nM | IC50 ([2]; Homo sapiens): < 50 nM

C=CC(=O)N1CC=C(c2cc3c(Oc4ccc(NC(=O)Nc5ccccc5)c(Cl)c4)ccnc3cc2OC)CC1 [Compound I-17, 4-[3-chloro-4-(phenylaminocarbonyl)aminophenoxy]-6-[(1-acryloyl-1,2,3,6-tetrahydropyridine)-4-yl]-7-methoxyquinoline]
IC50 [1]: < 2 nM | IC50 ([2]; Homo sapiens): < 50 nM

C=CC(=O)N1CC=C(c2cc3c(Oc4ccc(NC(=O)NC5CC5)cc4F)ccnc3cc2OC)CC1 [Compound I-18, 4-[2-fluoro-4-(cyclopropylaminocarbonyl)aminophenoxy]-6[(1-acryloyl-1,2,3,6-tetrahydropyridine)-4-yl]-7-methoxyquinoline]
IC50 [1]: < 5 nM | IC50 [2]: < 50 nM

C=CC(=O)N1CC=C(c2cc3c(Oc4ccc(NC(=O)NC5CC5)c(F)c4)ccnc3cc2OC)CC1 [Compound I-19, 4-[3-fluoro-4-(cyclopropylaminocarbonyl)aminophenoxy]-6-[(1-acryloyl-1,2,3,6-tetrahydropyridine)-4-yl]-7-methoxyquinoline]
IC50 [1]: < 2 nM | IC50 ([2]; Homo sapiens): < 50 nM

C=CC(=O)N1CC=C(c2cc3c(Oc4ccc(NC(=O)NC5CC5)cc4)ccnc3cc2OC)CC1 [Compound I-20, 4-[4-(cyclopropylaminocarbonyl)aminophenoxy]-6-[(1-acryloyl-1,2,3,6-tetrahydropyridine)-4-yl]-7-methoxyquinoline]
IC50 [1]: < 5 nM | IC50 ([2]; Homo sapiens): < 500 nM

C=CC(=O)N1CCC=C(c2cc3c(Oc4ccc(NC(=O)NC5CC5)c(Cl)c4)ccnc3cc2OC)C1 [Compound I-21, 4-[3-chloro-4-(cyclopropylaminocarbonyl)aminophenoxy]-6-[(1-acryloyl-1,2,5,6-tetrahydropyridine)-3-yl]-7-methoxyquinoline]
IC50 [1]: < 5 nM | IC50 ([2]; Homo sapiens): < 500 nM

C=CC(=O)N1CC=C(c2cc3c(Oc4ccc(NC(=O)NC5CC5)c(Cl)c4)ccnc3cc2OC)C1 [Compound I-22, 4-[3-chloro-4-(cyclopropylaminocarbonyl)aminophenoxy]-6-[(1-acryloyl-2,5-dihydropyrrole)-3-yl]-7-methoxyquinoline]
IC50 [1]: < 5 nM | IC50 ([2]; Homo sapiens): < 100 nM

C=CC(=O)N1CCC(c2cc3c(Oc4ccc(NC(=O)NC5CC5)c(Cl)c4)ccnc3cc2OC)C1 (centres unmarked) [Compound I-23, 4-[3-chloro-4-(cyclopropylaminocarbonyl)aminophenoxy]-6-[(1-acryloyl-tetrahydropyrrole)-3-yl]-7-methoxyquinoline]
IC50 [1]: < 5 nM | IC50 ([2]; Homo sapiens): < 500 nM

C=CC(=O)N1CC=C(c2cc3c(Oc4ccc(C(=O)NC5CC5)c(Cl)c4)ccnc3cc2OC)CC1 [Compound I-24, 4-[3-chloro-4-(cyclopropylamino)carbonylphenoxy]-6-[(1-acryloyl-1,2,3,6-tetrahydropyridine)-4-yl]-7-methoxyquinoline]
IC50 [1]: < 2 nM | IC50 ([2]; Homo sapiens): < 50 nM

C=CC(=O)N1CC=C(c2cc3c(Sc4ccc(NC(=O)NC5CC5)c(Cl)c4)ccnc3cc2OC)CC1 [Compound I-25, 4-[3-chloro-4-(cyclopropylaminocarbonyl)aminophenylmercapto]-6-[(1-acryloyl-1,2,3,6-tetrahydropyridine)-4-yl]-7-methoxyquinoline]
IC50 [1]: < 5 nM | IC50 ([2]; Homo sapiens): < 100 nM

C=CC(=O)N1CC=C(c2cc3c(Nc4ccc(NC(=O)NC5CC5)c(Cl)c4)ccnc3cc2OC)CC1 [Compound I-26, 4-[3-chloro-4-(cyclopropylaminocarbonyl)aminophenylamino]-6-[(1-acryloyl-1,2,3,6-tetrahydropyridine)-4-yl]-7-methoxyquinoline]
IC50 [1]: < 5 nM | IC50 ([2]; Homo sapiens): < 500 nM

COc1cc2nccc(Oc3ccc(NC(=O)NC4CC4)c(Cl)c3)c2cc1C(N)=O [Lenvatinib, reference compound]
IC50 [1]: 43 nM | IC50 ([2]; Homo sapiens): < 500 nM
